The subject of series [1] is Cirsium arvense. Nature of the series: Herbicidal activity against Cirsium arvense (Canada thistle) assessed as induction of leaf necrosis at 1 mg/mL measured after 2 days post compound treatment by leaf disk-puncture bioassay. The class given is functional, organism-based.
In another series the test system is Solanum lycopersicum. Kind of series: Phytotoxicity activity against Solanum lycopersicum (tomato) assessed as leaf necrotic lesion diameter at 1 mg/mL measured after 72 hr post compound treatment by leaf disk-puncture bioassay. Conditions: in vivo. The class given is organism-based.
Another series has as its system Elymus repens. Kind of series: Phytotoxicity activity against Elymus repens (couch grass) assessed as leaf necrotic lesion diameter at 1 mg/mL measured after 72 hr post compound treatment by leaf disk-puncture bioassay. The class given is organism-based. The settings on record: in vivo.
Series [2] deals with Cichorium intybus. Kind of series: Inhibition of root growth in Cichorium intybus (chicory) seedlings soaked in 1 mg/mL compound solutions for 1 hr relative to untreated control. The class given is functional.
In series [3] the test system is Cichorium intybus. Kind of series: Phytotoxicity activity against Cichorium intybus (chicory) assessed as leaf necrotic lesion diameter at 1 mg/mL measured after 72 hr post compound treatment by leaf disk-puncture bioassay. The class given is organism-based. The settings on record: in vivo.
In series [4] the test system is Cirsium arvense. Kind of series: Herbicidal activity against Cirsium arvense (Canada thistle) assessed as leaf necrotic lesion diameter at 1 mg/mL measured after 72 hr post compound treatment by leaf disk-puncture bioassay. Type of series: functional.
The subject of a further series is Trifolium pratense. Kind of series: Phytotoxicity activity against Trifolium pratense (red clover) assessed as leaf necrotic lesion diameter at 1 mg/mL measured after 72 hr post compound treatment by leaf disk-puncture bioassay. Type of series: organism-based. Conditions: in vivo.
Another series has as its system Aegopodium podagraria. Kind of series: Phytotoxicity activity against Aegopodium podagraria (bishop's weed) assessed as leaf necrotic lesion diameter at 1 mg/mL measured after 72 hr post compound treatment by leaf disk-puncture bioassay. Type of series: organism-based. Conditions: in vivo.
Series [5] deals with Cirsium arvense. Kind of series: Herbicidal activity against Cirsium arvense (Canada thistle) assessed as induction of leaf necrosis measured after 2 days post compound treatment by leaf disk-puncture bioassay. Conditions: 48 h. Type of series: functional.
A further series has as its system Radish. Nature of the series: Phytotoxicity activity against Raphanus sativus (radish) assessed as leaf necrotic lesion diameter at 1 mg/mL measured after 72 hr post compound treatment by leaf disk-puncture bioassay. The class given is organism-based. The settings on record: in vivo.
The subject of another series is Zea mays. Nature of the series: Phytotoxicity activity against Zea mays (maize) assessed as leaf necrotic lesion diameter at 1 mg/mL measured after 72 hr post compound treatment by leaf disk-puncture bioassay. Conditions: in vivo. Type of series: organism-based.

Each structure is given as a SMILES string. ≈ marks a conversion by molar mass, not a printed value. Calls of active or inactive are those of the source. The calls are words filed in the database; no cut-off is given here.

Regarding `C[C@@H]1C[C@H](O)/C=C/[C@@H](O)/C=C\C(=O)O1`, in the series with Cirsium arvense [1], the result was inactive.
On the same count and under the same terms, the entry for `C[C@@H]1C[C@H](O)/C=C\[C@@H](O)/C=C\C(=O)O1` is “inactive”; for `C[C@H]1OC(=O)CC[C@H](O)C/C=C\[C@H]1O` it is “inactive”.
By MIC is commonly meant the lowest concentration that inhibits growth of the organism. As to `C[C@@H]1OC(=O)/C=C\[C@@H](O)/C=C/[C@@H]2O[C@H]12` [Stagonolide H], the Activity with Solanum lycopersicum was less than 4 mm; in the series with Elymus repens it was less than 4 mm; in the series on Cichorium intybus [3], less than 4 mm; with Cirsium arvense [4], 7.5 mm; in the series with Trifolium pratense, less than 4 mm; in the series on Aegopodium podagraria, less than 4 mm. In addition, the Activity in the series with Radish and with Zea mays was less than 4 mm each time. In the series with Cirsium arvense [1], the result was Active. For the same compound, in the series with Cichorium intybus [2], the “growth inhibition (GI)” value stood at 85%. Further, the minimal inhibitory concentration (MIC) in the series with Cirsium arvense [5] was found to be 150 µM (≈ 29.4 µg/mL).

The record behind these values is ChEMBL document CHEMBL3044596, “Stagonolides G-I and modiolide A, nonenolides produced by Stagonospora cirsii, a potential mycoherbicide for Cirsium arvense” (J Nat Prod, 2008).
